Test results from patent publication US4401656A, “N-Substituted dimeric cyclopeptide derivatives” (Ayerst, McKenna & Harrison, Ltd., priority 1980, dated 1983).

Assays:
Klebsiella pneumoniae = experiment: serial broth dilution, growth inhibition; assay type: cell-based; conditions: nutrient broth, incubated at 37° C. for 2 days
Description: (§1) Grove and W. A. Randall in "Assay Methods of Antibiotics", Med. Encycl. Inc., New York, 1955. […] 289.
(§2) For example, by employing a test like the serial broth dilution, see Grove and Randall, cited above, in which dilutions of the compounds of this invention in nutrient broth are inoculated with the microorganisms or fungi, described above, incubated at 37° C. for 2 days, respectively, and examined for the presence of growth, it may be shown that the preferred compounds N'N'-dicyclohexyl-α,α'-diisopropyl-2,5,8,11,14,17-hexaoxo-1,4,7,10,13,16-hexaazacyclooctadecane-1,10-diacetamide, isomer L, (Example 1), N'N'-dicyclohexyl-α,α'-diisopropyl-2,5,8,11,14,17-hexaoxo-1,4,7,10,13,16-hexaazacyclooctadecane-1,10-diacetamide, isomer M, (Example 1), and α,α'-diphenyl-N'N'-dicyclohexyl-2,5,8,11,14,17-hexaoxo-1,4,7,10,13,16-hexaazacyclooctadecane-1,10-diacetamide, isomer L, (Example 1) are able to inhibit growth totally in this system of Klebsiella pneumoniae and Serratia marcescens at a concentration of 100 mcg/ml.

Serratia marcescens = experiment: serial broth dilution, growth inhibition; assay type: cell-based; conditions: nutrient broth, incubated at 37° C. for 2 days
Description: as §1, §2

SMILES	concentration able to inhibit growth totally (Klebsiella pneumoniae)	concentration able to inhibit growth totally (Serratia marcescens)
O=C1CNC(=O)CN(C(C(=O)NC2CCCCC2)c2ccccc2)C(=O)CNC(=O)CNC(=O)CN(C(C(=O)NC2CCCCC2)c2ccccc2)C(=O)CN1 (stereo not drawn) [α,α'-diphenyl-N,N'-dicyclohexyl-2,5,8,11,14,17-hexaoxo-1,4,7,10,13,16-hexaazacyclooctadecane-1,10-diacetamide]	100 µg/mL	100 µg/mL
CC(C)C(C(=O)NC1CCCCC1)N1CC(=O)NCC(=O)NCC(=O)N(C(C(=O)NC2CCCCC2)C(C)C)CC(=O)NCC(=O)NCC1=O (stereo not drawn) [N,N'-Dicyclohexyl-α,α'-diisopropyl-2,5,8,11,14,17-hexaoxo-1,4,7,10,13,16-hexaazacyclooctadecane-1,10-diacetamide]	100 µg/mL	100 µg/mL
